Measurements as given in patent publication US20200165574A1, “METHODS OF PREPARING NAÏVE HUMAN PLURIPOTENT STEM CELLS” (REGENTS OF THE UNIVERSITY OF MINNESOTA, priority 2017, published 2020).
“Also recorded” adds a separate entry of the source.

B1: full-length recombinant vitronectin: xeno-free recombinant full-length vitronectin (PeproTech), coated on plate at 5 μg/mL as culture substrate (protein, UniProt P04004 1-478, looked up)
chain: MAPLRPLLILALLAWVALADQESCKGRCTEGFNVDKKCQCDELCSYYQSCCTDYTAECKPQVTRGDVFTMPEDEYTVYDDGEEKNNATVHEQVGGPSLTSDLQAQSKGNPEQTPVLKPEEEAPAPEVGASKPEGIDSRPETLHPGRPQPPAEEELCSGKPFDAFTDLKNGSLFAFRGQYCYELDEKAVRPGYPKLIRDVWGIEGPIDAAFTRINCQGKTYLFKGSQYWRFEDGVLDPDYPRNISDGFDGIPDNVDAALALPAHSYSGRERVYFFKGKQYWEYQFQHQPSQEECEGSSLSAVFEHFAMMQRDSWEDIFELLFWGRTSAGTRQPQFISRDWHGVPGQVDAAMAGRIYISGMAPRPSLAKKQRFRHRNRKGYRSQRGHSRGRNQNSRRPSRATWLSLFSSEESNLGANNYDDYRMDWLVPATCEPIQSVFFFSGDKYYRVNLRTRRVDTVDPPYPRSIAQYWLGCPAPGHL
modifications: full-length
notes: xeno-free recombinant full-length vitronectin (PeproTech), coated on plate at 5 μg/mL as culture substrate

Key:
Type in all cases: cell-based, human
[1] = system: primed HPSCs; assay: ERK inhibitor assay, primed PSCs; details: 10 nM ERK inhibitor in media, imaged each day for 4 days
Procedure: (§1) One day after passaging, 10 nM ERK inhibitor PD0325901 (PZ0162, Sigma-Aldrich, St. Louis, Mo.) was added to naïve or primed PSCs. Cells were imaged each day for 4 days to follow morphology changes.

[2] = system: naïve HPSCs; assay: ERK inhibitor assay, naïve PSCs; details: naïve HPSCs in RSet media, additional 10 nM ERK inhibitor, imaged each day for 4 days; listed as PD325901
Procedure: as §1

[3] = system: primed HPSCs; assay: Feeder-free transition of primed HPSCs to the naïve state on a culture substrate; details: RSet media, substrate-coated plate
Procedure: Primed induced pluripotent stem cell (PCBC16iPS) (Ye et al. (2013) PLoS ONE 8 (1):e53764) to be used for naïve cell derivation were cultured for at least two passages in mTeSR1 medium (STEMCELL Technologies, Vancouver, Canada) in either normoxic (20% O2, 5% CO2) or hypoxic conditions (5% O2, 5% CO2). Primed iPSCs were treated with Gentle Cell Dissociation Reagent (STEMCELL Technologies, Vancouver, Canada) for 5 minutes at room temperature and removed from the plate with a 5 milliliter (mL) pipette in 1 mL TeSR1 medium. Aggregates of 250 primed iPSCs were plated in 1 mL mTeSR1 (STEMCELL Technologies, Vancouver, Canada) per well of a 12-well tissue culture treated plate (Corning, Inc., Corning, N.Y.) coated with 5 micrograms per milliliter (μg/mL) full-length vitronectin (PeproTech, Rocky Hill, N.J.) (Parr et al. (2016) Methods in Molecular Biology 1357:221-9). The plate had been previously coated with vitronectin at 37° C. for 2 hours per manufacturer's protocol. The plated cells were incubated overnight at 37° C., to allow adherence to the vitronectin coated plate. The cells may be incubated in either normoxic or hypoxic conditions, and typically were incubated under the same conditions used to maintain the primed HPSC culture. […] Cells were monitored for compaction and defined colony edges. […]

[4] = system: naïve HPSCs; assay: Karyotype of transitioned naïve HPSCs (high-resolution G banding); details: after 10 passages in RSet media
Description: Naïve HPSCs were examined by high-resolution G banding after 10 passages in RSet medium.

| Molecule | differentiation / maintenance of pluripotency (morphology changes) [1] | differentiation / maintenance of undifferentiated state (morphology changes) [2] | support of transition from primed to naïve pluripotent state [3] | karyotype of naïve HPSCs derived on the substrate [4] |
| --- | --- | --- | --- | --- |
| O=C(NOC[C@H](O)CO)c1ccc(F)c(F)c1Nc1ccc(I)cc1F [PD0325901] | induces differentiation; also recorded: displayed immediate differentiation | maintain their undifferentiated state |  |  |
| B1 |  |  | supports the successful transition | normal karyotype |
